Results reported in US9399637B2, “Substituted heteroaryl compounds and methods of use” (Calitor Sciences, LLC, priority 2014, dated 2016).

Tests used:
JAK1 (h) = target: T1, JAK1 (h) (Homo sapiens, UniProt P23458); assay: JAK1 kinase assay; format: biochemical
T1 construct: purchased Millipore UK Ltd (assays run there as a service)
Experimental: (§1) Kinase assays can be performed by measurement of incorporation of γ-^33P ATP into immobilized myelin basic protein (MBP). High binding white 384 well plates (Greiner) are coated with MBP (Sigma #M-1891) by incubation of 60 μL/well of 20 μg/mL MBP in Tris-buffered saline (TBS; 50 mM Tris pH 8.0, 138 mM NaCl, 2.7 mM KCl) for 24 h at 4° C. Plates are washed 3× with 100 μL TBS. Kinase reactions are carried out in a total volume of 34 μL in kinase buffer (5 mM Hepes pH 7.6, 15 mM NaCl, 0.01% bovine gamma globulin (Sigma #I-5506), 10 mM MgCl2, 1 mM DTT, 0.02% TritonX-100). Compound dilutions are performed in DMSO and added to assay wells to a final DMSO concentration of 1%. Each data point is measured in duplicate, and at least two duplicate assays are performed for each individual compound determination. Enzyme is added to final concentrations of 10 nM or 20 nM, for example. A mixture of unlabeled ATP and γ-^33P ATP is added to start the reaction (2×10^6 cpm of γ-^33P ATP per well (3000 Ci/mmole) and 10 μM unlabeled ATP, typically. The reactions are carried out for 1 h at room temperature with shaking Plates are washed 7× with TBS, followed by the addition of 50 μL/well scintillation fluid (Wallac). Plates are read using a Wallac Trilux counter. This is only one format of such assays; various other formats are possible, as known to one skilled in the art.
The above assay procedure can be used to determine the IC50 for inhibition and/or the inhibition constant, Ki. The IC50 is defined as the concentration of compound required to reduce the enzyme activity by 50% under the condition of the assay. The IC50 value is estimated by preparing a 10 point curve using a ½ log dilution series (for example, a typical curve may be prepared using the following compound concentrations: 3 μM, 1 μM, 0.3 μM, 0.1 μM, 0.03 μM, 0.01 μM, 0.003 μM, 0.001 μM, 0.0003 μM and 0 μM).
JAK1 (h) is incubated with 20 mM Tris/HCl pH 7.5, 0.2 mM EDTA, 500 μM […], 10 mM MgAcetate and [γ-^33P-ATP] (specific activity approx. 500 cpm/pmol, concentration as required).
The kinase assays described herein were performed at Millipore UK Ltd, Dundee Technology Park, Dundee DD2 1SW, UK.

JAK3 (h) = target: T2, JAK3 (h) (Homo sapiens, UniProt P52333); assay: JAK3 kinase assay; format: biochemical
T2 construct: purchased Millipore UK Ltd (assays run there as a service)
T2 sequence (P52333 1-1124): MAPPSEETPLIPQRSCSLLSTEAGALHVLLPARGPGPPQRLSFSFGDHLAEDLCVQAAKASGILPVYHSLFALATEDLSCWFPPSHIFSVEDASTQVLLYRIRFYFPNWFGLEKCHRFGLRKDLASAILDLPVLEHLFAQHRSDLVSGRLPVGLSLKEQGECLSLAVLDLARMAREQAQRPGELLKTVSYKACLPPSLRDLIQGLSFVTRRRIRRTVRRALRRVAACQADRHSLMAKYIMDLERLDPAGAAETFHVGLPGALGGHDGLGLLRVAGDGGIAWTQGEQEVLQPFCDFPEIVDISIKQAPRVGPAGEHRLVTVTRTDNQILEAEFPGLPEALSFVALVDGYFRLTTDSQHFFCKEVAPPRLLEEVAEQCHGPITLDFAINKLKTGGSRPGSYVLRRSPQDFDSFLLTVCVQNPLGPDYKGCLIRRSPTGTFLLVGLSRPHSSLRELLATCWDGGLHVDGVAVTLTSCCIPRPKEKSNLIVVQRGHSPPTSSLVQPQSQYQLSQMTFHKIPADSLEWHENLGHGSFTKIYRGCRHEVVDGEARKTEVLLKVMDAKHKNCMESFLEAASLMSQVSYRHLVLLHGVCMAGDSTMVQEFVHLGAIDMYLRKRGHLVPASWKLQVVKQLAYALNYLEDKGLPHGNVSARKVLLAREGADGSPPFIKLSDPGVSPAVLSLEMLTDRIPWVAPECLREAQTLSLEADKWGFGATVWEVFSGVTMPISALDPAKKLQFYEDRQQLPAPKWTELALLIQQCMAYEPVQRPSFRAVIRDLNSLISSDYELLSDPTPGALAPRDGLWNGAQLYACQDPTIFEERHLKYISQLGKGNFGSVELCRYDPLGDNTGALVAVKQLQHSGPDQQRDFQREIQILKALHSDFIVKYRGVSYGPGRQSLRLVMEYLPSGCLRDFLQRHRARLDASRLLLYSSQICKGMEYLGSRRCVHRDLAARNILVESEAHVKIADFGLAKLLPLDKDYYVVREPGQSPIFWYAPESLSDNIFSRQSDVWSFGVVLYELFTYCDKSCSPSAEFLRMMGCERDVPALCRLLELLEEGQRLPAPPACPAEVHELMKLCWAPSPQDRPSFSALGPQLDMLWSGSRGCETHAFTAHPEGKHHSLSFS
Experimental: as §1, with “art. […]” for “art.”

T1 sequence (P23458 whole entry): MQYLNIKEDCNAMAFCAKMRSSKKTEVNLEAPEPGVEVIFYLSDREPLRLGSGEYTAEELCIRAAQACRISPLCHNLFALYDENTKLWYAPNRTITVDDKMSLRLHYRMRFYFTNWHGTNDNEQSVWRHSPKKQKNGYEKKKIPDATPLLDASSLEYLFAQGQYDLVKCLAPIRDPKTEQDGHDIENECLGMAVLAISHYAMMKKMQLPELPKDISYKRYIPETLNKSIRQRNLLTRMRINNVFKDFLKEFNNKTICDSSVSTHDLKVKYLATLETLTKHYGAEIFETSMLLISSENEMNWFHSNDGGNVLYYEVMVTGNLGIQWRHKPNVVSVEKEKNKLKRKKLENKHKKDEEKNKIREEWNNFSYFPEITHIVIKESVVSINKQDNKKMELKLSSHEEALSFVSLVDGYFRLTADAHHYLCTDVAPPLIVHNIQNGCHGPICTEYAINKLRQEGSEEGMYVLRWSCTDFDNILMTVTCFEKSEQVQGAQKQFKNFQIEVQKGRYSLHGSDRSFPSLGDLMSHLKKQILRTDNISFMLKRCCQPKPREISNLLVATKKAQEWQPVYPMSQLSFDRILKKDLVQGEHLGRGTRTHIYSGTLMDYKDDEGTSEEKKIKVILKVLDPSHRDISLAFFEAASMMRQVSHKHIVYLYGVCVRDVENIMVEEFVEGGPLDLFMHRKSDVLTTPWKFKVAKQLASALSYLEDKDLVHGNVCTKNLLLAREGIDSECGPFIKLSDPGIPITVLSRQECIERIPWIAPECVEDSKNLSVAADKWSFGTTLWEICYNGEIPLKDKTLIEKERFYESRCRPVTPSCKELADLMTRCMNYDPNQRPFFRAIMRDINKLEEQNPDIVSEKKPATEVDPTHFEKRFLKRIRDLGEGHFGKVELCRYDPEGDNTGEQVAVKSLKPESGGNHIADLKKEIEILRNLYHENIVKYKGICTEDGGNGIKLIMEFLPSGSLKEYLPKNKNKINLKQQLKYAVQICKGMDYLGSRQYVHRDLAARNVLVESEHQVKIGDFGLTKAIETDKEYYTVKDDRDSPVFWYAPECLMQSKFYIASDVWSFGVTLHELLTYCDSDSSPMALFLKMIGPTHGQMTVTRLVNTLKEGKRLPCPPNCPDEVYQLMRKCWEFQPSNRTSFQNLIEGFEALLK

Compound | IC50 (JAK1 (h)) [nM] | IC50 (JAK3 (h)) [nM]
Cc1c2ccc(Nc3ncc(Cl)c(NC4CC5CN(C(=O)CC#N)CC5C4)n3)cc2nn1C (stereo not shown) [Ex. 4, 3-(5-((5-chloro-2-((2,3-dimethyl-2H-indazol-6-yl)amino)pyrimidin-4-yl)amino)hexahydrocyclopenta[c]pyrrol-2(1H)-yl)-3-oxopropanenitrile] | 1 | 535
CC(=O)N1CCC2(CCC(Nc3nc(Nc4ccc5c(C)n(C)nc5c4)ncc3Cl)CC2)CC1 [Ex. 7, 1-(9-((5-chloro-2-((2,3-dimethyl-2H-indazol-6-yl)amino)pyrimidin-4-yl)amino)-3-azaspiro[5.5]undecan-3-yl)ethanone] | 0.9 | 142
